Test results from PubChem BioAssay (NCI).
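Grown in 96-well plates, cells were treated for 48 hours with each compound at five concentrations. Insufficient inhibition: endpoint recorded as highest concentration tested. GI50: concentration for 50% inhibition of growth. TGI marks complete inhibition of growth.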

Key:
Assay in all cases: NCI tumour cell line growth inhibition, 48 h
ACHN renal = system: ACHN renal
CAKI-1 renal = system: CAKI-1 renal
EKVX NSCLC = system: EKVX NSCLC
MOLT-4 leukemia = system: MOLT-4 leukemia
NCI-H23 lung = system: NCI-H23 lung
OVCAR-3 ovarian = system: OVCAR-3 ovarian
RPMI-8226 leukemia = system: RPMI-8226 leukemia
RXF 393 renal = system: RXF 393 renal
BT-549 breast = system: BT-549 breast
MDA-MB-231 breast = system: MDA-MB-231 breast

SMILES | TGI (ACHN renal) [µM] | TGI (CAKI-1 renal) [µM] | TGI (EKVX NSCLC) [µM] | TGI (MOLT-4 leukemia) [µM] | TGI (NCI-H23 lung) [µM] | TGI (OVCAR-3 ovarian) [µM] | TGI (RPMI-8226 leukemia) [µM] | TGI (RXF 393 renal) [µM] | TGI (BT-549 breast) [µM] | TGI (MDA-MB-231 breast) [µM] | GI50 (ACHN renal) [µM] | GI50 (BT-549 breast) [µM] | GI50 (CAKI-1 renal) [µM] | GI50 (EKVX NSCLC) [µM] | GI50 (MDA-MB-231 breast) [µM] | GI50 (NCI-H23 lung) [µM] | GI50 (OVCAR-3 ovarian) [µM] | GI50 (MOLT-4 leukemia) [µM] | GI50 (RPMI-8226 leukemia) [µM] | GI50 (RXF 393 renal) [µM]
C[n+]1c2ccccc2c(CNC(CS)C(=O)O)c2ccccc21 (stereo not drawn) | > 100 | 70.5 | > 100 | 36.7 | > 100 | 62 | 50.5 | 59.8 | – | – | – | – | – | – | – | – | – | – | – | –
Cc1[nH]n(-c2ccccc2)c(=O)c1C(N(CCc1ccccc1)C1=NCC(C)S1)(C(F)(F)F)C(F)(F)F (stereo not drawn) | 79.3 | > 100 | 36.4 | 97.8 | 20 | > 100 | – | – | 49.1 | 65.6 | – | – | – | – | – | – | – | – | – | –
Oc1ccc(-c2nc3cc(F)ccc3s2)cc1 | 40.7 | 43.9 | 38 | > 100 | 83.8 | 41.5 | 60.5 | 71.9 | 60.6 | – | – | – | – | – | – | – | – | – | – | –
COC(=O)/C=C1\CCCN1CCc1cc2c(cc1CC#N)OCO2 | > 100 | > 100 | > 100 | > 100 | > 100 | 69.1 | > 100 | > 100 | > 100 | > 100 | – | – | – | – | – | – | – | – | – | –
CCOP(=O)(OCC)C(Nc1cccc(F)c1)c1ccc(N(C)C)cc1 (stereo not drawn) | > 100 | > 100 | > 100 | > 100 | > 100 | > 100 | > 100 | > 100 | > 100 | > 100 | – | – | – | – | – | – | – | – | – | –
CC1C(=O)C(C)C(c2ccco2)N(N=O)C1c1ccco1 (stereo not drawn) | – | > 100 | > 100 | > 100 | > 100 | > 100 | > 100 | > 100 | – | – | – | – | – | – | – | – | – | – | – | –
CN(C)c1ccc(/C=c2/c3ccccc3n3c2cc(NC(=O)NCCC[N+](C)(C)C)[n+]3C)cc1 | > 100 | > 100 | > 100 | > 100 | > 100 | > 100 | > 100 | > 100 | > 100 | > 100 | – | – | – | – | – | – | – | – | – | –
N=c1oc2ccc(Cl)cc2cc1C(N)=O | > 100 | > 100 | – | > 100 | 75.1 | 64.9 | > 100 | > 100 | > 100 | 69 | – | – | – | – | – | – | – | – | – | –
O=C(CSc1nc2ccc(I)cc2c(=O)n1Cc1ccccc1)NN1C(=O)c2ccccc2C1=O | 68.9 | 33.5 | 42.2 | 95 | 44.7 | 28.6 | > 100 | 25.5 | 36.2 | 32 | – | – | – | – | – | – | – | – | – | –
COc1cc([N+](=O)[O-])ccc1N1C(=O)C2c3[nH]c4ccccc4c3C3CCC(C(C)(C)C)CC3C2C1=O (stereo not drawn) | > 100 | 24.9 | > 100 | > 100 | > 100 | > 100 | > 100 | – | > 100 | 75.5 | – | – | – | – | – | – | – | – | – | –
CSc1ccc(/C=C2\N=C(c3ccccc3)N(/N=C3\C(=O)Nc4ccccc43)C2=O)cc1 | > 100 | > 100 | > 100 | > 100 | > 100 | > 100 | – | > 100 | > 100 | > 100 | – | – | – | – | – | – | – | – | – | –
Nc1nnc2oc3ccc4ccccc4c3cc1-2 | 80.1 | > 100 | > 100 | > 100 | > 100 | > 100 | > 100 | > 100 | > 100 | 97.1 | – | – | – | – | – | – | – | – | – | –
CCc1ccc2c(c1)C(=O)c1c-2n(CCCN)c(=O)c2cc([N+](=O)[O-])ccc12 | 2.84 | 3.11 | 3.11 | – | 3.29 | 2.96 | – | – | 3.29 | 2.98 | 1.51 | 1.68 | 1.55 | 1.67 | 1.53 | 1.81 | 1.58 | – | – | –
N#C/C(C(=O)Nc1ccc(Cl)cc1)=C(/N)N1CCOCC1 | > 100 | > 100 | > 100 | > 100 | > 100 | > 100 | > 100 | – | > 100 | – | – | – | – | – | – | – | – | – | – | –
COC(=O)NC1C(C)OC(OC2C/C=C(/C)C3C=CC4C(OC5CC(OC6CC(OC7CC(O)C(O)C(C)O7)C(OC7CC(O)C(OC)C(C)O7)C(C)O6)C(O)C(C)O5)C(C)CC(C)C4C3(C)/C(O)=C3\C(=O)OC4(CC(C)C(CO)=CC4/C=C\2C)C3=O)CC1(C)[N+](=O)[O-] (stereo not drawn) | 27.2 | 41.1 | 42.8 | 31.7 | 41.5 | – | 7.66 | – | 89.5 | 40.2 | – | – | – | – | – | – | – | – | – | –
CC1(O)COCCCCOc2c(CN)cccc2NC(=O)c2nc(cnc2N)-c2ccc(cc2)S(=O)(=O)C(C)(C)C1 (stereo not drawn) | 2.06 | 2.53 | 3.38 | 2.4 | – | 2.56 | 3.5 | 1.87 | 2.91 | 2.82 | 0.042 | 1.45 | 1.22 | 1.68 | 1.37 | – | 1.23 | 0.019 | 1.2 | 0.015
c1c2c(cc3c1OCO3)-c1cc3ccc4c(c3c[n+]1CC2)OCO4 | > 12.5 | > 12.5 | > 12.5 | > 12.5 | > 12.5 | > 3.26 | > 12.5 | > 12.5 | > 12.5 | > 6.86 | – | – | – | – | – | – | – | – | – | –
COC(=O)c1ccccc1C1=C([N+](=O)[O-])C(c2cccc(Br)c2)C(C#N)=C(N)O1 (stereo not drawn) | 43.4 | – | 97.7 | > 100 | 88.2 | 51.7 | > 100 | 41.9 | – | > 100 | – | – | – | – | – | – | – | – | – | –
COc1ccc(/C=C2\N=C(c3ccccc3)OC2=O)cc1OC(C)=O | > 100 | – | – | 26.1 | > 100 | > 100 | > 100 | > 100 | > 100 | > 100 | – | – | – | – | – | – | – | – | – | –
